Reference: patent US20160113921A1, “COMBINATION THERAPY COMPRISING OXAZOLIDINONE-QUINOLONES FOR USE IN TREATING BACTERIAL INFECTIONS” (MORPHOCHEM AKTIENGESELLSCHAFT FÜR KOMBINATORISCHE CHEMIE, priority 2013, published 2016)
Converted amounts (≈) assume the structure as drawn. Like-named read-outs stand apart in the source and are kept apart here.

What was measured:
Assay type in all cases: cell-based
[1] = tested on: Gram-positive strains tested; experiment: MIC testing, statements on the Gram-positive strain panel; conditions: read-out: MIC (inhibitory concentration)
Text: (§1) MIC-testing was done immediately after preparation of the dilutions. All tests were done in duplicate and repeated once on a separate occasion.

[2] = tested on: S. aureus DSM 11823, clone 16 (MSSA, quinolone-resistant); experiment: microbe, parasite or virus in culture; conditions: Staphylococcus aureus
Description: as §1
(§2) 1 mL of the bacterial suspension was transferred into a tube containing 10 mL CAMHB and was vortexed thoroughly. (S. pneumoniae 1 mL in 10 mL CAMHB+5% lysed horse blood). Columns 1-15 of the 96-well plate were inoculated with 5 μL of this suspension (1-15=antibacterial solution, 16=sterile medium without test item).
(§3) Turbidity was read visually with a mirror.

[3] = tested on: S. aureus Visa Mu 50 (MRSA, vancomycin intermediate susceptible); experiment: MIC, broth microdilution (CLSI), CAMHB; conditions: Staphylococcus aureus
Description: as §1, §2, §3

[4] = tested on: E. faecalis V583 (VanB); experiment: MIC, broth microdilution (CLSI), CAMHB; conditions: Enterococcus faecalis
Description: as §1, §2, §3

[5] = tested on: E. faecium UW 3695 (linezolid and quinolone-resistant); experiment: MIC, broth microdilution (CLSI), CAMHB; conditions: Enterococcus faecium
Description: as §1, §2, §3

[6] = tested on: S. aureus ATCC 29213; experiment: MIC, broth microdilution (CLSI), CAMHB; conditions: Staphylococcus aureus
Description: as §1, §2, §3

[7] = tested on: S. pneumoniae ATCC 33400; experiment: MIC, broth microdilution (CLSI), CAMHB; conditions: Streptococcus pneumoniae
Description: as §1, §2, §3

[8] = tested on: E. faecalis ATCC 29212; experiment: MIC, broth microdilution (CLSI), CAMHB; conditions: Enterococcus faecalis
Description: as §1, §2, §3

[9] = tested on: S. aureus NRS-119 (MRSA, linezolid- and quinolone-resistant); experiment: MIC, broth microdilution (CLSI), CAMHB; conditions: Staphylococcus aureus
Description: as §1, §2, §3

[10] = tested on: S. pneumoniae BAY 19397 (penicillin-, macrolide-, quinolone-resistant); experiment: MIC, broth microdilution (CLSI), CAMHB; conditions: Streptococcus pneumoniae
Description: as §1, §2, §3

[11] = tested on: E. faecium DSMZ 2146; experiment: MIC, broth microdilution (CLSI), CAMHB; conditions: Enterococcus faecium
Description: as §1, §2, §3

[12] = tested on: S. aureus ATCC 33593 (MRSA); experiment: MIC, broth microdilution (CLSI), CAMHB; conditions: Staphylococcus aureus
Description: as §1, §2, §3

[13] = tested on: Gram-negative test strains (Enterobacteriaceae, non-fermenters); experiment: MIC testing, statements on the Gram-negative strain panel
Text: as §1

[14] = tested on: P. mirabilis NRZ-00185 (AmpC, type CMY-2); experiment: MIC, broth microdilution (CLSI), CAMHB; conditions: Proteus mirabilis
Description: as §1, §2, §3

[15] = tested on: K. pneumoniae ATCC 13883; experiment: MIC, broth microdilution (CLSI), CAMHB; conditions: Klebsiella pneumoniae
Description: as §1, §2, §3

[16] = tested on: P. aeruginosa NRZ-00425 (VIM-1); experiment: MIC, broth microdilution (CLSI), CAMHB; conditions: Pseudomonas aeruginosa
Description: as §1, §2, §3

[17] = tested on: E. cloacae NRZ-00239 (VIM-1); experiment: MIC, broth microdilution (CLSI), CAMHB; conditions: Enterobacter cloacae
Description: as §1, §2, §3

[18] = tested on: E. coli GNS-2601 (ESBL CTX-M-15); experiment: MIC, broth microdilution (CLSI), CAMHB; conditions: Escherichia coli
Description: as §1, §2, §3

[19] = tested on: E. cloacae ATCC 13047; experiment: MIC, broth microdilution (CLSI), CAMHB; conditions: Enterobacter cloacae
Description: as §1, §2, §3

[20] = tested on: K. pneumoniae NRZ-00103 (KPC-2); experiment: MIC, broth microdilution (CLSI), CAMHB; conditions: Klebsiella pneumoniae
Description: as §1, §2, §3

[21] = tested on: E. coli NRZ-00401 (metallo β-lactamase VIM-1); experiment: MIC, broth microdilution (CLSI), CAMHB; conditions: Escherichia coli
Description: as §1, §2, §3

[22] = tested on: P. aeruginosa ATCC 10145; experiment: MIC, broth microdilution (CLSI), CAMHB; conditions: Pseudomonas aeruginosa
Description: as §1, §2, §3

[23] = tested on: K. pneumoniae NRZ-00535 (VIM-1); experiment: MIC, broth microdilution (CLSI), CAMHB; conditions: Klebsiella pneumoniae
Description: as §1, §2, §3

[24] = tested on: P. mirabilis ATCC 9240; experiment: MIC, broth microdilution (CLSI), CAMHB; conditions: Proteus mirabilis
Description: as §1, §2, §3

[25] = tested on: E. coli ATCC 25922; experiment: MIC, broth microdilution (CLSI), CAMHB; conditions: Escherichia coli
Description: as §1, §2, §3

[26] = tested on: K. pneumoniae NRZ-00002 (OXA-48); experiment: MIC, broth microdilution (CLSI), CAMHB; conditions: Klebsiella pneumoniae
Description: as §1, §2, §3

[27] = tested on: E. coli NRZ-00302 (metallo β-lactamase NDM-1); experiment: MIC, broth microdilution (CLSI), CAMHB; conditions: Escherichia coli
Description: as §1, §2, §3

[28] = monosubstance, Sa VisaMu50, read-out: MIC
[29] = monosubstance, Ef V583, read-out: MIC
[30] = monosubstance, Efc UW3695, read-out: MIC
[31] = monosubstance, Sa ATCC29213, read-out: MIC
[32] = monosubstance, Spn ATCC33400, read-out: MIC
[33] = monosubstance, Ef ATCC29212, read-out: MIC
[34] = monosubstance, Sa NRS119, read-out: MIC
[35] = monosubstance, Spn 19397, read-out: MIC
[36] = monosubstance, Efc DSMZ2146, read-out: MIC
[37] = monosubstance, Sa ATCC33593, read-out: MIC

| Structure (SMILES) | MIC [2] | MIC [3, 28] | MIC [4, 29] | MIC [5, 30] | MIC [6, 31] | MIC [7, 32] | MIC [8, 33] | MIC [9, 34] | MIC [10, 35] | MIC [11, 36] | MIC [12, 37] | MIC [3] | MIC [4] | MIC [5] | MIC ([6]; ATCC29213) | MIC ([7]; ATCC33400) | MIC ([8]; ATCC29212) | MIC [9] | MIC [10] | MIC ([11]; DSMZ2146) | further results |
| --- | --- | --- | --- | --- | --- | --- | --- | --- | --- | --- | --- | --- | --- | --- | --- | --- | --- | --- | --- | --- | --- |
| CC(=O)NC[C@H]1CN(c2ccc(N3CCOCC3)c(F)c2)C(=O)O1 [linezolid] | 2 µg/mL (≈ 5.93 µM) | 4 µg/mL (≈ 11.9 µM) | 2 µg/mL (≈ 5.93 µM) | 16 µg/mL (≈ 47.4 µM) | 2 µg/mL (≈ 5.93 µM) | 2 µg/mL (≈ 5.93 µM) | 4 µg/mL (≈ 11.9 µM) | 64 µg/mL (≈ 190 µM) | 1 µg/mL (≈ 2.96 µM) | 4 µg/mL (≈ 11.9 µM) | 2 µg/mL (≈ 5.93 µM) | – | – | – | – | – | – | – | – | – | MIC ([1]; all the test strains except S. aureus NRS-119 and E. faecium UW 3695): < 4 µg/mL |
| COc1c(N2C[C@@H]3CCCN[C@@H]3C2)c(F)cc2c(=O)c(C(=O)O)cn(C3CC3)c12 [moxifloxacin] | – | 8 µg/mL (≈ 19.9 µM) | 0.25 µg/mL (≈ 0.623 µM) | 64 µg/mL (≈ 159 µM) | 0.12 µg/mL (≈ 0.299 µM) | 0.25 µg/mL (≈ 0.623 µM) | 0.5 µg/mL (≈ 1.25 µM) | 8 µg/mL (≈ 19.9 µM) | 4 µg/mL (≈ 9.96 µM) | 0.5 µg/mL (≈ 1.25 µM) | 0.06 µg/mL (≈ 0.149 µM) | – | – | – | – | – | – | – | – | – | – |
| CN(C)c1cc(NC(=O)CNC(C)(C)C)c(O)c2c1C[C@H]1C[C@H]3[C@H](N(C)C)C(O)=C(C(N)=O)C(=O)[C@@]3(O)C(O)=C1C2=O [tigecycline] | 0.125 µg/mL (≈ 0.213 µM) | – | – | – | – | – | – | – | – | – | – | 0.5 µg/mL (≈ 0.854 µM) | 0.25 µg/mL (≈ 0.427 µM) | 0.25 µg/mL (≈ 0.427 µM) | 0.25 µg/mL (≈ 0.427 µM) | 0.0075 µg/mL (≈ 0.0128 µM) | 0.25 µg/mL (≈ 0.427 µM) | 0.25 µg/mL (≈ 0.427 µM) | 0.0075 µg/mL (≈ 0.0128 µM) | 0.25 µg/mL (≈ 0.427 µM) | MIC [1]: < 0.5 µg/mL; MIC [13]: > 2 µg/mL; MIC [14]: 8 µg/mL (≈ 13.7 µM); MIC ([15]; ATCC13883): 2 µg/mL (≈ 3.41 µM); MIC [16]: 32 µg/mL (≈ 54.6 µM); MIC [17]: 2 µg/mL (≈ 3.41 µM); MIC [18]: 4 µg/mL (≈ 6.83 µM); MIC ([19]; ATCC13047): 2 µg/mL (≈ 3.41 µM); MIC [20]: 4 µg/mL (≈ 6.83 µM); MIC [21]: 2 µg/mL (≈ 3.41 µM); MIC ([22]; ATCC10145): 16 µg/mL (≈ 27.3 µM); MIC [23]: 2 µg/mL (≈ 3.41 µM); MIC ([24]; ATCC9240): 8 µg/mL (≈ 13.7 µM); MIC ([25]; ATCC25922): 0.5 µg/mL (≈ 0.854 µM); MIC [26]: 2 µg/mL (≈ 3.41 µM); MIC [12]: 0.25 µg/mL (≈ 0.427 µM); MIC [27]: 2 µg/mL (≈ 3.41 µM) |
| NC[C@H]1O[C@H](O[C@H]2[C@H](O)[C@@H](O[C@H]3O[C@H](CO)[C@@H](O)[C@H](N)[C@H]3O)[C@H](N)C[C@@H]2N)[C@H](N)C[C@@H]1O [tobramycin] | – | – | – | – | – | – | – | – | – | – | – | – | – | – | – | – | – | – | – | – | MIC ([13]; remainder / remaining / all other test strains, as worded for each agent, read-out: MIC): > 4 µg/mL; MIC ([14]; monosubstance, Pm NRZ00185, read-out: MIC): 0.125 µg/mL (≈ 0.267 µM); MIC ([15]; monosubstance, Kp ATCC13883, read-out: MIC): 0.125 µg/mL (≈ 0.267 µM); MIC ([16]; monosubstance, Pa NRZ00425, read-out: MIC): > 128 µg/mL; MIC ([17]; monosubstance, Ecl NRZ00239, read-out: MIC): 4 µg/mL (≈ 8.56 µM); MIC ([18]; monosubstance, Ec GNS2601, read-out: MIC): 32 µg/mL (≈ 68.4 µM); MIC ([19]; monosubstance, Ecl ATCC13047, read-out: MIC): 0.25 µg/mL (≈ 0.535 µM); MIC ([20]; monosubstance, Kp NRZ00103, read-out: MIC): 16 µg/mL (≈ 34.2 µM); MIC ([21]; monosubstance, Ec NRZ00401, read-out: MIC): 4 µg/mL (≈ 8.56 µM); MIC ([22]; monosubstance, Pa ATCC10145, read-out: MIC): 0.5 µg/mL (≈ 1.07 µM); MIC ([23]; monosubstance, Kp NRZ00535, read-out: MIC): 8 µg/mL (≈ 17.1 µM); MIC ([24]; monosubstance, Pm ATCC9240, read-out: MIC): 0.5 µg/mL (≈ 1.07 µM); MIC ([25]; monosubstance, Ec ATCC25922, read-out: MIC): 1 µg/mL (≈ 2.14 µM); MIC ([26]; monosubstance, Kp NRZ00002, read-out: MIC): 16 µg/mL (≈ 34.2 µM); MIC ([27]; monosubstance, Ec NRZ00302, read-out: MIC): 64 µg/mL (≈ 137 µM) |
| CN[C@H](CC(C)C)C(=O)N[C@H]1C(=O)N[C@@H](CC(N)=O)C(=O)N[C@H]2C(=O)N[C@H]3C(=O)N[C@H](C(=O)N[C@H](C(=O)O)c4cc(O)cc(O)c4-c4cc3ccc4O)[C@H](O)c3ccc(c(Cl)c3)Oc3cc2cc(c3O[C@@H]2O[C@H](CO)[C@@H](O)[C@H](O)[C@H]2O[C@H]2C[C@](C)(N)[C@H](O)[C@H](C)O2)Oc2ccc(cc2Cl)[C@H]1O [vancomycin] | 0.015 µg/mL (≈ 0.0104 µM) | – | – | – | – | – | – | – | – | – | – | 2 µg/mL (≈ 1.38 µM) | 32 µg/mL (≈ 22.1 µM) | 0.25 µg/mL (≈ 0.173 µM) | 0.25 µg/mL (≈ 0.173 µM) | 0.25 µg/mL (≈ 0.173 µM) | 1 µg/mL (≈ 0.69 µM) | 1 µg/mL (≈ 0.69 µM) | 0.25 µg/mL (≈ 0.173 µM) | 0.25 µg/mL (≈ 0.173 µM) | MIC [12]: 0.5 µg/mL (≈ 0.345 µM) |
